Data reported in ChEMBL document CHEMBL5291721, “A preclinical secondary pharmacology resource illuminates target-adverse drug reaction associations of marketed drugs” (Nat Commun, 2023).

Assays:
[1] = molecular target: T1, Alpha-1A adrenergic receptor (Homo sapiens, UniProt P35348)
T1 sequence (P35348 whole entry): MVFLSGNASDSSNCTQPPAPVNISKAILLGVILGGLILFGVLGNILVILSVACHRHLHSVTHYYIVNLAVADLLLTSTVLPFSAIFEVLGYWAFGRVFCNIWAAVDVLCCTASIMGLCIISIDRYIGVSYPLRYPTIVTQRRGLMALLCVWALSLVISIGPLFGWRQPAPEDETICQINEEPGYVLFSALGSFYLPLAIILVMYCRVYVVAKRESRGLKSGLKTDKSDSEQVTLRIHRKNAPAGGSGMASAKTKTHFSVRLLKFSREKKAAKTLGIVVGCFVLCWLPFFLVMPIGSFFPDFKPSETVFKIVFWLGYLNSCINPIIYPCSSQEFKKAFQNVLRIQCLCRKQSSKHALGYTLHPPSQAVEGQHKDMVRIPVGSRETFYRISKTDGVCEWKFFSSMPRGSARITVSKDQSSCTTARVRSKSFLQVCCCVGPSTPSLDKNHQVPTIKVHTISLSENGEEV

D(1A) dopamine receptor = D(1A) dopamine receptor (Homo sapiens, UniProt P21728)
Sequence of D(1A) dopamine receptor (P21728 whole entry): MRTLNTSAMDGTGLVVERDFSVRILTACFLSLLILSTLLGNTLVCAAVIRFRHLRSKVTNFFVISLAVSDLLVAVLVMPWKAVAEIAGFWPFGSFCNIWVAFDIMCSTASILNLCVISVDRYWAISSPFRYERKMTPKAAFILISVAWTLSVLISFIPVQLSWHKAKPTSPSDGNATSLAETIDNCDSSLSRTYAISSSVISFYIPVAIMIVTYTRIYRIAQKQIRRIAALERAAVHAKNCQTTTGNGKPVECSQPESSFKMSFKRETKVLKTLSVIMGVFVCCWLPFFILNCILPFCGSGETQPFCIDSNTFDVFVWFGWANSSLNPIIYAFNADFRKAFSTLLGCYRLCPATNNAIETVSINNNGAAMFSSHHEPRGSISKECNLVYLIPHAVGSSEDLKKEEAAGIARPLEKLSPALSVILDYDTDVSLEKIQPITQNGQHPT

Substance-P receptor = Substance-P receptor (Homo sapiens, UniProt P25103)
Sequence of Substance-P receptor (P25103 whole entry): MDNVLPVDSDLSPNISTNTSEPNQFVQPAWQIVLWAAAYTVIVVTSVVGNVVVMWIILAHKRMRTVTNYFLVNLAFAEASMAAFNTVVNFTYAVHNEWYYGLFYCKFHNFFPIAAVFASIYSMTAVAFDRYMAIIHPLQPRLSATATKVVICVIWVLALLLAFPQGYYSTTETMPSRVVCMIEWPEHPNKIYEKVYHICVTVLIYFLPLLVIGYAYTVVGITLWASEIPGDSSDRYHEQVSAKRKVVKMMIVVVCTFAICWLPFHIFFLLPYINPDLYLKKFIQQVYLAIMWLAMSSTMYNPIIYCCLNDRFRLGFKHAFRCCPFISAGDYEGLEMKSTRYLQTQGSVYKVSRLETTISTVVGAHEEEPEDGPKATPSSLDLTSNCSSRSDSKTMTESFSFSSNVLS

[2] = molecular target: T2, Corticotropin-releasing factor receptor 1 (Homo sapiens, UniProt P34998)
T2 sequence (P34998 whole entry): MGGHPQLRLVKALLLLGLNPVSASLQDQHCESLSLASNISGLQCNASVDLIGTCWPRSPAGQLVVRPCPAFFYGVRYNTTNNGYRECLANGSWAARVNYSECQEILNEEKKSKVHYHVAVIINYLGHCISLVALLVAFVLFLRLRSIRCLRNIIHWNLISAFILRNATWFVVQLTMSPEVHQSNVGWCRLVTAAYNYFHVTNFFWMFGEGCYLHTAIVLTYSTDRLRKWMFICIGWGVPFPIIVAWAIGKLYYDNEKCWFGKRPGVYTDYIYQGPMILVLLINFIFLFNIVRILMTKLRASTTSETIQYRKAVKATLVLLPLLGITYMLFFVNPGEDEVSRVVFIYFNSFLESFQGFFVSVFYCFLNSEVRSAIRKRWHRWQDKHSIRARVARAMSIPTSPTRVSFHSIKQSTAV

[3] = molecular target: T3, Gastric inhibitory polypeptide receptor (Homo sapiens, UniProt P48546)
T3 sequence (P48546 whole entry): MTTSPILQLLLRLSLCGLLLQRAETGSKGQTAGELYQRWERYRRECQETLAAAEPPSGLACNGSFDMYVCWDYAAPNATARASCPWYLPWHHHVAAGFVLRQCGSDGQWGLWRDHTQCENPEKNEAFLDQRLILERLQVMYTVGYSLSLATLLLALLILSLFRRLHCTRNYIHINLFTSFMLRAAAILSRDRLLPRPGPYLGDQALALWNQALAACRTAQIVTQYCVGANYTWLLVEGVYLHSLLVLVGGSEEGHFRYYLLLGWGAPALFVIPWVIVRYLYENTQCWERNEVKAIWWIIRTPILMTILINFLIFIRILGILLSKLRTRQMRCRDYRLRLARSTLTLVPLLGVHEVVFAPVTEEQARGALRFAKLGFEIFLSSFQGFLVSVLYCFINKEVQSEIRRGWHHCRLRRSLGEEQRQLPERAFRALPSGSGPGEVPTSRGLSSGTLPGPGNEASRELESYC

Thromboxane A2 receptor = molecular target: T4, Thromboxane A2 receptor (Homo sapiens, UniProt P21731); format: functional, cell-based
T4 sequence (P21731 whole entry): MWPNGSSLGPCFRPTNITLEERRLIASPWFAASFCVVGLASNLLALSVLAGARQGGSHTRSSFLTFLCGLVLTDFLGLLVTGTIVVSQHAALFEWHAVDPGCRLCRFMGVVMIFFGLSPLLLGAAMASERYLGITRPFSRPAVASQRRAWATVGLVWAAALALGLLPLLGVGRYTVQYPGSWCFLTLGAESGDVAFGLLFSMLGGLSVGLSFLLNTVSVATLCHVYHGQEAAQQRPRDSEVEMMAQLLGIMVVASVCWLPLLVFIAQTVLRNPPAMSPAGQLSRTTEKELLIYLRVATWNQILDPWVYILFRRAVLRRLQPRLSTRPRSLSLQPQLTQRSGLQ

Androgen receptor = molecular target: T5, Androgen receptor (Rattus norvegicus, UniProt P15207); format: functional
T5 sequence (P15207 whole entry): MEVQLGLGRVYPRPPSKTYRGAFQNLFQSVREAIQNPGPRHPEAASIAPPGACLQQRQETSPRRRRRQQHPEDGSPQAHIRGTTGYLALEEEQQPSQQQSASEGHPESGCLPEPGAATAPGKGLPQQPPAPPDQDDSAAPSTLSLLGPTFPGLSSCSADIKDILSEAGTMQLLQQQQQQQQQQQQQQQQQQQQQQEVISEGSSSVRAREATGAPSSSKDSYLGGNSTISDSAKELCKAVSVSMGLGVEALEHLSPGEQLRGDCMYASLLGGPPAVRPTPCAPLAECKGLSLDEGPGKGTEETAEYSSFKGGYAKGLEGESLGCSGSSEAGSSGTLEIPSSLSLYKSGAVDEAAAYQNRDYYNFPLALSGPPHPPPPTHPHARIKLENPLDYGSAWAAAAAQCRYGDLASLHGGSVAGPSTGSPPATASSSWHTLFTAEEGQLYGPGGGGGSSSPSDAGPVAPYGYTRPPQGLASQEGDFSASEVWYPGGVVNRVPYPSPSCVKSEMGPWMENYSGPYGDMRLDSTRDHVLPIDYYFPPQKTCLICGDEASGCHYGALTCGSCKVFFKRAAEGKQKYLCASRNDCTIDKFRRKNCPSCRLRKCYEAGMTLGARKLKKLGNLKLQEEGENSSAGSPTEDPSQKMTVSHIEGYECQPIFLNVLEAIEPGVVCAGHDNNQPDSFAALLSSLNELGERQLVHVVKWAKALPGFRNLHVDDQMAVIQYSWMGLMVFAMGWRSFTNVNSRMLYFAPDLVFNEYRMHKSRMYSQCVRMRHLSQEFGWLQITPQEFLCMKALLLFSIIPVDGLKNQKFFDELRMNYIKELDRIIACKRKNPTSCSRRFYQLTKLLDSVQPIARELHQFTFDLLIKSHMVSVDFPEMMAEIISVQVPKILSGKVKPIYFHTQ
Note: assay procedure not described here.

Row | Structure (SMILES) | AC50 (Substance-P receptor) [µM] | AC50 [2] [µM] | AC50 [3] [µM] | AC50 (Thromboxane A2 receptor) [µM] | further results
1 | O=C(O)[C@@H](S)[C@@H](S)C(=O)O |  |  |  |  | AC50 [1]: > 30 µM; AC50 (D(1A) dopamine receptor): > 30 µM
2 | CCOC(=O)[C@H](CCc1ccccc1)N[C@@H](C)C(=O)N1Cc2ccccc2C[C@H]1C(=O)O | > 10 | > 30 | > 30 |  | 
3 | CC#CC(=O)N1CCC[C@H]1c1nc(-c2ccc(C(=O)Nc3ccccn3)cc2)c2c(N)nccn12 [ACALABRUTINIB] |  |  |  |  | AC50 [1]: > 30 µM; AC50 (D(1A) dopamine receptor): > 30 µM
4 | CN(C)CCC=C1c2ccccc2CCc2ccccc21 [AMITRIPTYLINE] | > 10 | > 30 | > 30 | > 30 | 
5 | CC(=O)Oc1ccccc1C(=O)O [ASPIRIN] | > 10 | > 30 | > 30 | > 30 | 
6 | Cn1cnc2c(F)c(Nc3ccc(Br)cc3F)c(C(=O)NOCCO)cc21 [BINIMETINIB] |  |  |  | > 30 | AC50 (Androgen receptor): > 30 µM
7 | CCN(CC)CCn1c(=O)c(Cc2ccc(OC)cc2)nc2ccccc21 [CAROVERINE] |  |  |  |  | AC50 (Androgen receptor): > 30 µM
8 | O=C(Cc1cccs1)N[C@@H]1C(=O)N2C(C(=O)[O-])=C(C[n+]3ccccc3)CS[C@H]12 [CEPHALORIDINE] |  |  |  |  | AC50 [1]: > 30 µM; AC50 (D(1A) dopamine receptor): > 30 µM
9 | CN(C)CCCC1(c2ccc(F)cc2)OCc2cc(C#N)ccc21 (stereo unspecified) [CITALOPRAM] | > 10 | > 30 | > 30 |  | 
10 | C[C@H](Nc1ncnc2[nH]cnc12)c1cc2cccc(Cl)c2c(=O)n1-c1ccccc1 [DUVELISIB] |  |  |  |  | AC50 (Androgen receptor): > 30 µM; AC50 [1]: > 30 µM; AC50 (D(1A) dopamine receptor): > 30 µM
11 | C[C@]12CCC(=O)C=C1CC[C@H]1[C@@H]3CC[C@](O)(C(=O)CO)[C@@]3(C)C[C@H](O)[C@@]12F [FLUDROCORTISONE] |  | > 30 | > 30 |  | 
12 | NCC1(CC(=O)O)CCCCC1 [GABAPENTIN] | > 10 | > 30 | > 30 | > 30 | 
13 | OCCOCCN1CCN(C(c2ccccc2)c2ccc(Cl)cc2)CC1 (stereo unspecified) [HYDROXYZINE] | > 10 | > 30 | > 30 |  | 
14 | C[C@@H](O)[C@H]1C(=O)N2C(C(=O)O)=C(SCCN=CN)C[C@H]12 [IMIPENEM ANHYDROUS] |  |  |  | > 300 | 
15 | Nc1nnc(-c2cccc(Cl)c2Cl)c(N)n1 [LAMOTRIGINE] | > 10 | > 30 | > 30 |  | 
16 | O=C1[C@@H]2[C@H]3CC[C@H](C3)[C@@H]2C(=O)N1C[C@@H]1CCCC[C@H]1CN1CCN(c2nsc3ccccc23)CC1 [LURASIDONE] |  |  |  |  | AC50 (Androgen receptor): 5.7 µM
17 | CCCCCCO[C@@H](C)c1cccc(-c2csc(NC(=O)c3cc(Cl)c(/C=C(\C)C(=O)O)c(Cl)c3)n2)c1OC [LUSUTROMBOPAG] |  |  |  |  | AC50 [1]: > 30 µM; AC50 (D(1A) dopamine receptor): 5.53 µM
18 | CO[C@@H]1[C@@H](OC(N)=O)[C@@H](O)[C@H](Oc2ccc3c(O)c(NC(=O)c4ccc(O)c(CC=C(C)C)c4)c(=O)oc3c2C)OC1(C)C [NOVOBIOCIN] |  |  |  | > 30 | 
19 | C#CCN(C)Cc1ccccc1 [PARGYLINE] |  |  |  |  | AC50 [1]: > 30 µM; AC50 (D(1A) dopamine receptor): > 30 µM
20 | CC(C)(CO)c1cc2cc(NC(=O)C3(c4ccc5c(c4)OC(F)(F)O5)CC3)c(F)cc2n1C[C@@H](O)CO [TEZACAFTOR] |  |  |  |  | AC50 (Androgen receptor): > 30 µM
21 | Cc1c(C)c2c(c(C)c1O)CCC(C)(COc1ccc(CC3SC(=O)NC3=O)cc1)O2 (stereo unspecified) [TROGLITAZONE] |  | > 30 | > 30 |  | AC50 (Androgen receptor): > 30 µM
22 | c1cnc2cc3c(cc2n1)[C@@H]1CNC[C@H]3C1 [VARENICLINE] |  |  |  | > 30 | 
23 | Nc1c2c(nc3ccccc13)CCCC2O (stereo unspecified) [VELNACRINE] |  |  |  | > 30 | 
